# Assay results taken from ChEMBL document CHEMBL3865792, “Antioxidant and antitumor activity of trolox, trolox succinate, and α-tocopheryl succinate conjugates with nitroxides” (Eur J Med Chem, 2016).
# Test system: not listed separately
# Experiment: Ratio of IC50 for human HEPG2 cells to concentration causing antioxidant activity in Salmonella typhimurium TA102 harboring […] mutant
# Type: functional
# Details: not given
row,SMILES,Ratio
1,Cc1c(C)c2c(c(C)c1O)CCC(C)(C(=O)NC1CC(C)(C)N([O])C(C)(C)C1)O2 (configuration not stated),100 - 1000
2,Cc1c(C)c2c(c(C)c1OC(=O)CCC(=O)NCC1CC(C)(C)N([O])C1(C)C)CC[C@@](C)(CCC[C@H](C)CCC[C@H](C)CCCC(C)C)O2 (some centres not stated),100 - 1000

# Test system: not listed separately
# Experiment: Ratio of IC50 for human RPMI8226 cells to concentration causing antioxidant activity in Salmonella typhimurium TA102 harboring […] mutant
# Type: functional, RPMI-8226
# Details: not given
row,SMILES,Ratio
1,Cc1c(C)c2c(c(C)c1O)CCC(C)(C(=O)NC1CC(C)(C)N([O])C(C)(C)C1)O2 (configuration not stated),100 - 1000
2,Cc1c(C)c2c(c(C)c1OC(=O)CCC(=O)NCC1CC(C)(C)N([O])C1(C)C)CC[C@@](C)(CCC[C@H](C)CCC[C@H](C)CCCC(C)C)O2 (some centres not stated),100 - 1000

# Test system: not listed separately
# Experiment: Cytotoxicity against human CEM13 cells assessed as reduction in cell viability after 72 hrs by MTT assay
# Type: functional, cell-based
# Details: CEM13, 72 h
row,SMILES,IC50 [µM]
1,Cc1c(C)c2c(c(C)c1O)CCC(C)(C(=O)NC1CC(C)(C)N([O])C(C)(C)C1)O2 (configuration not stated),> 300
2,Cc1c(C)c2c(c(C)c1OC(=O)CCC(=O)NCC1CC(C)(C)N([O])C1(C)C)CC[C@@](C)(CCC[C@H](C)CCC[C@H](C)CCCC(C)C)O2 (some centres not stated),105

# Test system: not listed separately
# Experiment: Cytotoxicity against hamster AG17-1 cells assessed as reduction in cell viability at 300 uM after 72 hrs by MTT assay
# Type: toxicity, cell-based, Cricetulus griseus
# Details: Chinese hamster, read-out: INH
row,SMILES,"cytotoxicity at 72 h, 300 µM [%]"
1,Cc1c(C)c2c(c(C)c1OC(=O)CCC(=O)NCC1CC(C)(C)N([O])C1(C)C)CC[C@@](C)(CCC[C@H](C)CCC[C@H](C)CCCC(C)C)O2 (some centres not stated),32

# Test system: not listed separately
# Experiment: Cytotoxicity against human HepG2 cells assessed as reduction in cell viability at 300 uM after 72 hrs by MTT assay
# Type: functional
# Details: HepG2, 72 h
row,SMILES,inhibition at 300 µM [%]
1,Cc1c(C)c2c(c(C)c1OC(=O)CCC(=O)NCC1CC(C)(C)N([O])C1(C)C)CC[C@@](C)(CCC[C@H](C)CCC[C@H](C)CCCC(C)C)O2 (some centres not stated),10

# Test system: not listed separately
# Experiment: Ratio of IC50 for human U937 cells to concentration causing antioxidant activity in Salmonella typhimurium TA102 harboring […] mutant
# Type: functional, U-937
# Details: not given
row,SMILES,Ratio
1,Cc1c(C)c2c(c(C)c1O)CCC(C)(C(=O)NC1CC(C)(C)N([O])C(C)(C)C1)O2 (configuration not stated),100 - 1000
2,Cc1c(C)c2c(c(C)c1OC(=O)CCC(=O)NCC1CC(C)(C)N([O])C1(C)C)CC[C@@](C)(CCC[C@H](C)CCC[C@H](C)CCCC(C)C)O2 (some centres not stated),100 - 1000

# Test system: not listed separately
# Experiment: Cytotoxicity against human MCF7 cells assessed as reduction in cell viability after 72 hrs by MTT assay
# Type: functional, cell-based
# Details: MCF7, 72 h
row,SMILES,IC50 [µM]
1,Cc1c(C)c2c(c(C)c1O)CCC(C)(C(=O)NC1CC(C)(C)N([O])C(C)(C)C1)O2 (configuration not stated),58
2,Cc1c(C)c2c(c(C)c1OC(=O)CCC(=O)NCC1CC(C)(C)N([O])C1(C)C)CC[C@@](C)(CCC[C@H](C)CCC[C@H](C)CCCC(C)C)O2 (some centres not stated),260

# Test system: Salmonella enterica subsp. enterica serovar Typhimurium
# Experiment: Antioxidant activity in Salmonella typhimurium TA102 harboring […] mutant assessed as inhibition of t-BuO2H-dependant mutant formation at 3 uM preincubated with compound followed by t-BuO2H addition after 48 hrs by Ames test
# Type: functional
# Details: not given
row,SMILES,inhibition [%]
1,Cc1c(C)c2c(c(C)c1O)CCC(C)(C(=O)NC1CC(C)(C)N([O])C(C)(C)C1)O2 (configuration not stated),21.5
2,Cc1c(C)c2c(c(C)c1OC(=O)CCC(=O)NCC1CC(C)(C)N([O])C1(C)C)CC[C@@](C)(CCC[C@H](C)CCC[C@H](C)CCCC(C)C)O2 (some centres not stated),4

# Test system: not listed separately
# Experiment: Cytotoxicity against hamster AG17-1 cells assessed as reduction in cell viability after 72 hrs by MTT assay
# Type: toxicity, cell-based, Cricetulus griseus
# Details: Chinese hamster
row,SMILES,IC50 at 72 h [µM]
1,Cc1c(C)c2c(c(C)c1O)CCC(C)(C(=O)NC1CC(C)(C)N([O])C(C)(C)C1)O2 (configuration not stated),186
2,Cc1c(C)c2c(c(C)c1OC(=O)CCC(=O)NCC1CC(C)(C)N([O])C1(C)C)CC[C@@](C)(CCC[C@H](C)CCC[C@H](C)CCCC(C)C)O2 (some centres not stated),> 300

# Test system: not listed separately
# Experiment: Ratio of IC50 for human MCF7 cells to concentration causing antioxidant activity in Salmonella typhimurium TA102 harboring […] mutant
# Type: functional
# Details: not given
row,SMILES,Ratio
1,Cc1c(C)c2c(c(C)c1O)CCC(C)(C(=O)NC1CC(C)(C)N([O])C(C)(C)C1)O2 (configuration not stated),100 - 1000
2,Cc1c(C)c2c(c(C)c1OC(=O)CCC(=O)NCC1CC(C)(C)N([O])C1(C)C)CC[C@@](C)(CCC[C@H](C)CCC[C@H](C)CCCC(C)C)O2 (some centres not stated),100 - 1000

# Test system: not listed separately
# Experiment: Cytotoxicity against mouse LMTK cells assessed as reduction in cell viability after 72 hrs by MTT assay
# Type: toxicity
# Details: not given
row,SMILES,IC50 at 72 h [µM]
1,Cc1c(C)c2c(c(C)c1O)CCC(C)(C(=O)NC1CC(C)(C)N([O])C(C)(C)C1)O2 (configuration not stated),252
2,Cc1c(C)c2c(c(C)c1OC(=O)CCC(=O)NCC1CC(C)(C)N([O])C1(C)C)CC[C@@](C)(CCC[C@H](C)CCC[C@H](C)CCCC(C)C)O2 (some centres not stated),> 300

# Test system: Salmonella enterica subsp. enterica serovar Typhimurium
# Experiment: Antioxidant activity in Salmonella typhimurium TA102 harboring […] mutant assessed as inhibition of t-BuO2H-dependant mutant formation at 30 uM preincubated with compound followed by t-BuO2H addition after 48 hrs by Ames test
# Type: functional
# Details: not given
row,SMILES,inhibition [%]
1,Cc1c(C)c2c(c(C)c1O)CCC(C)(C(=O)NC1CC(C)(C)N([O])C(C)(C)C1)O2 (configuration not stated),4.1
2,Cc1c(C)c2c(c(C)c1OC(=O)CCC(=O)NCC1CC(C)(C)N([O])C1(C)C)CC[C@@](C)(CCC[C@H](C)CCC[C@H](C)CCCC(C)C)O2 (some centres not stated),24

# Test system: Salmonella typhimurium
# Experiment: Genotoxicity in Salmonella typhimurium TA102 harboring […] mutant assessed as frequency of reversion from histidine auxotrophy to prototrophy at 30 mM after 48 hrs by Ames test (reference value: 209 +/- 10 No _unit)
# Type: toxicity, organism-based
# Details: salmonella enterica subsp. enterica serovar typhimurium, 30000 µM
row,SMILES,Activity
1,Cc1c(C)c2c(c(C)c1O)CCC(C)(C(=O)NC1CC(C)(C)N([O])C(C)(C)C1)O2 (configuration not stated),218
2,Cc1c(C)c2c(c(C)c1OC(=O)CCC(=O)NCC1CC(C)(C)N([O])C1(C)C)CC[C@@](C)(CCC[C@H](C)CCC[C@H](C)CCCC(C)C)O2 (some centres not stated),215

# Test system: not listed separately
# Experiment: Ratio of IC50 for human MT4 cells to concentration causing antioxidant activity in Salmonella typhimurium TA102 harboring […] mutant
# Type: functional
# Details: not given
row,SMILES,Ratio
1,Cc1c(C)c2c(c(C)c1O)CCC(C)(C(=O)NC1CC(C)(C)N([O])C(C)(C)C1)O2 (configuration not stated),100 - 1000
2,Cc1c(C)c2c(c(C)c1OC(=O)CCC(=O)NCC1CC(C)(C)N([O])C1(C)C)CC[C@@](C)(CCC[C@H](C)CCC[C@H](C)CCCC(C)C)O2 (some centres not stated),100 - 1000

# Test system: not listed separately
# Experiment: Genotoxicity in Escherichia coli PQ37 expressing lacZ gene assessed as ratio of inducible beta-galactosidase activity to alkaline phosphatase activity at 30 mM after 2 hrs by SOS-chromotest relative to control
# Type: toxicity
# Details: Escherichia coli PQ37 cells expressing lacZ gene, read-out: FC
row,SMILES,"fold induction at 2 h, 30000 µM"
1,Cc1c(C)c2c(c(C)c1O)CCC(C)(C(=O)NC1CC(C)(C)N([O])C(C)(C)C1)O2 (configuration not stated),1.4
2,Cc1c(C)c2c(c(C)c1OC(=O)CCC(=O)NCC1CC(C)(C)N([O])C1(C)C)CC[C@@](C)(CCC[C@H](C)CCC[C@H](C)CCCC(C)C)O2 (some centres not stated),1

# Test system: not listed separately
# Experiment: Cytotoxicity against human CEM13 cells assessed as reduction in cell viability at 300 uM after 72 hrs by MTT assay
# Type: functional
# Details: CEM13, 72 h
row,SMILES,inhibition at 300 µM [%]
1,Cc1c(C)c2c(c(C)c1O)CCC(C)(C(=O)NC1CC(C)(C)N([O])C(C)(C)C1)O2 (configuration not stated),32

# Test system: not listed separately
# Experiment: Cytotoxicity against human HepG2 cells assessed as reduction in cell viability after 72 hrs by MTT assay
# Type: functional, cell-based
# Details: HepG2, 72 h
row,SMILES,IC50 [µM]
1,Cc1c(C)c2c(c(C)c1O)CCC(C)(C(=O)NC1CC(C)(C)N([O])C(C)(C)C1)O2 (configuration not stated),54
2,Cc1c(C)c2c(c(C)c1OC(=O)CCC(=O)NCC1CC(C)(C)N([O])C1(C)C)CC[C@@](C)(CCC[C@H](C)CCC[C@H](C)CCCC(C)C)O2 (some centres not stated),> 300

# Test system: not listed separately
# Experiment: Cytotoxicity against human RPMI8226 cells assessed as reduction in cell viability after 72 hrs by MTT assay
# Type: functional, cell-based
# Details: RPMI-8226, 72 h
row,SMILES,IC50 [µM]
1,Cc1c(C)c2c(c(C)c1O)CCC(C)(C(=O)NC1CC(C)(C)N([O])C(C)(C)C1)O2 (configuration not stated),39
2,Cc1c(C)c2c(c(C)c1OC(=O)CCC(=O)NCC1CC(C)(C)N([O])C1(C)C)CC[C@@](C)(CCC[C@H](C)CCC[C@H](C)CCCC(C)C)O2 (some centres not stated),217

# Test system: not listed separately
# Experiment: Ratio of IC50 for human CEM13 cells to concentration causing antioxidant activity in Salmonella typhimurium TA102 harboring […] mutant
# Type: functional
# Details: not given
row,SMILES,Ratio
1,Cc1c(C)c2c(c(C)c1O)CCC(C)(C(=O)NC1CC(C)(C)N([O])C(C)(C)C1)O2 (configuration not stated),100 - 1000
2,Cc1c(C)c2c(c(C)c1OC(=O)CCC(=O)NCC1CC(C)(C)N([O])C1(C)C)CC[C@@](C)(CCC[C@H](C)CCC[C@H](C)CCCC(C)C)O2 (some centres not stated),100 - 1000

# Test system: not listed separately
# Experiment: Cytotoxicity against human MT4 cells assessed as reduction in cell viability after 72 hrs by MTT assay
# Type: functional, cell-based
# Details: MT4, 72 h
row,SMILES,IC50 [µM]
1,Cc1c(C)c2c(c(C)c1O)CCC(C)(C(=O)NC1CC(C)(C)N([O])C(C)(C)C1)O2 (configuration not stated),55
2,Cc1c(C)c2c(c(C)c1OC(=O)CCC(=O)NCC1CC(C)(C)N([O])C1(C)C)CC[C@@](C)(CCC[C@H](C)CCC[C@H](C)CCCC(C)C)O2 (some centres not stated),92

# Test system: not listed separately
# Experiment: Cytotoxicity against human U937 cells assessed as reduction in cell viability after 72 hrs by MTT assay
# Type: functional, cell-based
# Details: U-937, 72 h
row,SMILES,IC50 [µM]
1,Cc1c(C)c2c(c(C)c1O)CCC(C)(C(=O)NC1CC(C)(C)N([O])C(C)(C)C1)O2 (configuration not stated),161
2,Cc1c(C)c2c(c(C)c1OC(=O)CCC(=O)NCC1CC(C)(C)N([O])C1(C)C)CC[C@@](C)(CCC[C@H](C)CCC[C@H](C)CCCC(C)C)O2 (some centres not stated),137

# Test system: not listed separately
# Experiment: Cytotoxicity against mouse LMTK cells assessed as reduction in cell viability at 300 uM after 72 hrs by MTT assay
# Type: toxicity
# Details: read-out: INH
row,SMILES,"cytotoxicity at 72 h, 300 µM [%]"
1,Cc1c(C)c2c(c(C)c1OC(=O)CCC(=O)NCC1CC(C)(C)N([O])C1(C)C)CC[C@@](C)(CCC[C@H](C)CCC[C@H](C)CCCC(C)C)O2 (some centres not stated),7

# Test system: Salmonella enterica subsp. enterica serovar Typhimurium
# Experiment: Antioxidant activity in Salmonella typhimurium TA102 harboring […] mutant assessed as inhibition of t-BuO2H-dependant mutant formation at 0.3 uM preincubated with compound followed by t-BuO2H addition after 48 hrs by Ames test
# Type: functional
# Details: not given
row,SMILES,inhibition [%]
1,Cc1c(C)c2c(c(C)c1O)CCC(C)(C(=O)NC1CC(C)(C)N([O])C(C)(C)C1)O2 (configuration not stated),11
2,Cc1c(C)c2c(c(C)c1OC(=O)CCC(=O)NCC1CC(C)(C)N([O])C1(C)C)CC[C@@](C)(CCC[C@H](C)CCC[C@H](C)CCCC(C)C)O2 (some centres not stated),1
